Consider 19 molecules from patent US8735414B2 (priority 2009, dated 2014).

For orientation: IC50 means the concentration that gives 50% inhibition. Usually melting point stands for the temperature, or range, at which the solid turns liquid.

Series [1] concerns bicistronic HCV replicon (replicon RNA, GenBank Accession No. AJ242654). Put plainly: HCV Replicon Assay. Type of series: cell-based. To be noted: Hepatitis C virus, 72 h, read-out: Replicon IC50. A general note: Replicon systems follow genome replication, usually without infectious particles.

The structures appear in SMILES notation.

`CCc1cc2c(cc1F)c(C(N)=O)c(-c1ccc(S(=O)(=O)NC(C)(C)C(F)(F)F)cn1)n2C1CCCC1` [compound 871, 1-cyclopentyl-6-ethyl-5-fluoro-2-{5-[(1,1,1-trifluoro-2-methylpropan-2-yl)sulfamoyl]pyridin-2-yl}-1H-indole-3-carboxamide] registered a melting point of 185 to 188 °C. Moreover, the IC50 in series [1] was less than 0.5 µM.
With `CCc1cc2c(cc1F)c(C(N)=O)c(-c1ccc(S(=O)(=O)N[C@@H](C)C(F)(F)F)cn1)n2-c1ccc(F)cn1` [compound 981, 6-ethyl-5-fluoro-1-(5-fluoropyridin-2-yl)-2-(5-{[(2S)-1,1,1-trifluoropropan-2-yl]sulfamoyl}pyridin-2-yl)-1H-indole-3-carboxamide], the melting point was in the range of 200 to 204 °C. In addition, the IC50 in series [1] is less than 0.5 µM.
`CCc1cc2c(cc1F)c(C(N)=O)c(-c1ccc(S(=O)(=O)N[C@@H](C)C(F)(F)F)cn1)n2-c1ncc(C)cn1` [compound 1047, 6-ethyl-5-fluoro-1-(5-methylpyrimidin-2-yl)-2-(5-{[(2S)-1,1,1-trifluoropropan-2-yl]sulfamoyl}pyridin-2-yl)-1H-indole-3-carboxamide] gave a melting point of 257 to 261 °C. For the same molecule, the IC50 in series [1] is 0.5 to 2 µM.
`Cc1ccc2c(C#N)c(-c3ncc(S(=O)(=O)N[C@@H](C)C4CC4)cn3)n(C3CCCC3)c2c1` [compound 204, 2-(3-cyano-1-cyclopentyl-6-methyl-1H-indol-2-yl)-N-[(1S)-1-cyclopropylethyl]pyrimidine-5-sulfonamide] displayed a melting point of 180 to 182 °C. In addition, in series [1], the IC50 is less than 0.5 µM.
In turn, `CC(C)n1c(-c2ccc(S(=O)(=O)NC(CF)CF)cn2)c(C#N)c2cc(F)ccc21` [compound 60, 6-[3-cyano-5-fluoro-1-(propan-2-yl)-1H-indol-2-yl]-N-(1,3-difluoropropan-2-yl)pyridine-3-sulfonamide] displayed a melting point of 168 to 170 °C. The IC50 in series [1] is less than 0.5 µM.
In turn, `C[C@H](NS(=O)(=O)c1ccc(-c2c(C#N)c3ccc(OC(F)F)cc3n2C2CCCC2)nc1)C(F)(F)F` [compound 589, 6-[3-cyano-1-cyclopentyl-6-(difluoromethoxy)-1H-indol-2-yl]-N-[(2S)-1,1,1-trifluoropropan-2-yl]pyridine-3-sulfonamide] returned a melting point of 188 to 194 °C. Further, in series [1], the IC50 is less than 0.5 µM.
With `CC(C)NS(=O)(=O)c1cnc(-c2c(C#N)c3cc(Cl)ccc3n2C2CCCC2)nc1` [compound 314, 2-(5-chloro-3-cyano-1-cyclopentyl-1H-indol-2-yl)-N-(propan-2-yl)pyrimidine-5-sulfonamide], the melting point lay within 239 to 245 °C. For the same molecule, the IC50 in series [1] was less than 0.5 µM.
`N#Cc1c(-c2ccc(S(=O)(=O)NC3(C(F)(F)F)CC3)cn2)n(C2CCCC2)c2cc(OC(F)F)ccc12` [compound 94, 6-[3-cyano-1-cyclopentyl-6-(difluoromethoxy)-1H-indol-2-yl]-N-[1-(trifluoromethyl)cyclopropyl]pyridine-3-sulfonamide] displayed a melting point of 186 to 193 °C. Further, the IC50 in series [1] is less than 0.5 µM.
In the same order, the values of `Cc1ccc2c(c1)c(C#N)c(-c1ccc(S(=O)(=O)N[C@@H](C)C(F)(F)F)cn1)n2C1CCCC1` [compound 345, 6-(3-cyano-1-cyclopentyl-5-methyl-1H-indol-2-yl)-N-[(2S)-1,1,1-trifluoropropan-2-yl]pyridine-3-sulfonamide] are 195 to 200 °C and less than 0.5 µM.
For `CC(C)n1c(-c2ccc(S(=O)(=O)NC(CF)CF)cn2)c(C#N)c2ccc(OC(F)F)cc21` [compound 36, 6-[3-cyano-6-(difluoromethoxy)-1-(propan-2-yl)-1H-indol-2-yl]-N-(1,3-difluoropropan-2-yl)pyridine-3-sulfonamide], in that order: 142 to 145 °C and less than 0.5 µM.
In turn, `N#Cc1c(-c2ccc(S(=O)(=O)NC(CF)CF)cn2)n(C2CCOC2)c2ccc(F)cc12` (centres unmarked) [compound 46, 6-[3-cyano-5-fluoro-1-(tetrahydrofuran-3-yl)-1H-indol-2-yl]-N-(1,3-difluoropropan-2-yl)pyridine-3-sulfonamide] came in with a melting point of 194 to 197 °C. For the same molecule, the IC50 in series [1] was less than 0.5 µM.
On to `Cc1cc2c(cc1Br)c(C#N)c(-c1ccc(S(=O)(=O)N[C@@H](C)C(F)(F)F)cn1)n2C1CCCC1` [compound 675, 6-(5-bromo-3-cyano-1-cyclopentyl-6-methyl-1H-indol-2-yl)-N-[(2S)-1,1,1-trifluoropropan-2-yl]pyridine-3-sulfonamide], for which the melting point lay in the range of 204 to 204.5 °C. In addition, in series [1], the IC50 is less than 0.5 µM.
`CCc1ccc2c(C#N)c(-c3ccc(S(=O)(=O)N[C@@H](C)C(F)(F)F)cn3)n(C3CCC3)c2c1` [compound 338, 6-(3-cyano-1-cyclobutyl-6-ethyl-1H-indol-2-yl)-N-[(2S)-1,1,1-trifluoropropan-2-yl]pyridine-3-sulfonamide] returned a melting point of 198 to 199 °C. In addition, the IC50 in series [1] is less than 0.5 µM.
As to `Cc1cc2c(cc1F)c(C(N)=O)c(-c1ccc(S(=O)(=O)NC(C)(C)C(F)(F)F)cn1)n2C1CCCCC1` [compound 714, 1-cyclohexyl-5-fluoro-6-methyl-2-{5-[(1,1,1-trifluoro-2-methylpropan-2-yl)sulfamoyl]pyridin-2-yl}-1H-indole-3-carboxamide], the melting point fell in the range of 245 to 250 °C. The IC50 in series [1] is less than 0.5 µM.
Molecule `CC(C)NS(=O)(=O)c1cnc(-c2c(C#N)c3cc(F)ccc3n2C(C)C)nc1` [compound 123, 2-[3-cyano-5-fluoro-1-(propan-2-yl)-1H-indol-2-yl]-N-(propan-2-yl)pyrimidine-5-sulfonamide] displayed a melting point of 192 to 197 °C. Further, the half-maximal inhibitory concentration (IC50) in series [1] is less than 0.5 µM.
Consider `CC(C)S(=O)(=O)Nc1ccc(-c2c(C#N)c3ccc(C4CC4)cc3n2C2CCC2)cn1` [compound 289, N-[5-(3-cyano-1-cyclobutyl-6-cyclopropyl-1H-indol-2-yl)pyridin-2-yl]propane-2-sulfonamide], for which the melting point was in the range of 226 to 228 °C. Moreover, the IC50 in series [1] fell in the range of 0.5 to 2 µM.
For the molecule `CC(C)(NS(=O)(=O)c1ccc(-c2c(C#N)c3ccc(OC(F)F)cc3n2-c2ccccn2)nc1)C(F)(F)F` [compound 583, 6-[3-cyano-6-(difluoromethoxy)-1-(pyridin-2-yl)-1H-indol-2-yl]-N-(1,1,1-trifluoro-2-methylpropan-2-yl)pyridine-3-sulfonamide], the melting point fell in the range of 170 to 173 °C. Also, the IC50 in series [1] is less than 0.5 µM.
For `Cc1c(F)cc2c(c1F)c(C#N)c(-c1ccc(S(=O)(=O)N[C@@H](C)C(F)(F)F)cn1)n2C1CCC1` [compound 555, 6-(3-cyano-1-cyclobutyl-4,6-difluoro-5-methyl-1H-indol-2-yl)-N-[(2S)-1,1,1-trifluoropropan-2-yl]pyridine-3-sulfonamide], in that order: 181 to 186 °C and less than 0.5 µM.
`CCc1cc2c(cc1F)c(C#N)c(-c1ccc(S(=O)(=O)N[C@@H](C)C(F)(F)F)cn1)n2-c1nccs1` [compound 935, 6-[3-cyano-6-ethyl-5-fluoro-1-(1,3-thiazol-2-yl)-1H-indol-2-yl]-N-[(2S)-1,1,1-trifluoropropan-2-yl]pyridine-3-sulfonamide] yielded a melting point of 187 to 191 °C. In series [1], the IC50 is less than 0.5 µM.
